ChEMBL document CHEMBL1201862, “PubChem BioAssay data set” (2004)
Where “and” joins values, the source holds several entries; their conditions need not be identical. Equal entries are not always repeated. Calls of active or inactive are those of the source.

Assays:
[1] = target: Metabotropic glutamate receptor 3 (Rattus norvegicus, UniProt P31422); assay: inhibition of rat mGlu3 glutamate signaling – HEK/GIRK cells, thallium flux, dose response (AID 651839); type: functional
Paired box protein Pax-8 = Paired box protein Pax-8 (Homo sapiens, UniProt Q06710); assay: PAX8 transcriptional activity inhibition in RMG-I – RMG-I cells, luciferase, cherry-pick, dose response (AID 687027); type: functional, cell-based;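 further: luciferase reporter driven by Pax8 target thyroperoxidase promoter measured by SteadyGlo luminescence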
[2] = OVCAR-3 cell viability loss – plate reader, dry powder samples, PAX8 inhibitor project, dose response (AID 743044); type: functional, cell-based
[3] = toxicity toward immortalized ovarian surface epithelium – cell-based, plate reader, dry powder samples, cytotoxicity control for PAX8 inhibitor project, dose response (AID 743045); type: functional
[4] = IGROV1 cell killing – plate reader, dry powder samples, PAX8 inhibitor project, dose response (AID 743043); type: functional, cell-based; details: IGROV-1
[5] = OVCAR8 cell viability loss – plate reader, dry powder samples, PAX8 project, dose response (AID 743197); type: functional, cell-based; details: OVCAR-8
[6] = A2780 cell killing – plate reader, dry powder samples, cytotoxicity control, dose response (AID 743046); type: functional, cell-based
HEK293 [7] = assay: membrane integrity loss in HEK cells – cell-based, fluorescence, cytotoxicity control for IDE activator project, dose response (AID 588440); type: functional; details: Homo sapiens;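 further: cytotoxicity by LDH release measuring loss of membrane integrity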
Insulin-degrading enzyme [8] = target: T1, Insulin-degrading enzyme (Homo sapiens, UniProt P14735); assay: recombinant IDE activation, cell-free – biochemical, fluorescence polarization, counter-screen for IDE activator project, dose response (AID 588681)
T1 sequence (P14735 whole entry): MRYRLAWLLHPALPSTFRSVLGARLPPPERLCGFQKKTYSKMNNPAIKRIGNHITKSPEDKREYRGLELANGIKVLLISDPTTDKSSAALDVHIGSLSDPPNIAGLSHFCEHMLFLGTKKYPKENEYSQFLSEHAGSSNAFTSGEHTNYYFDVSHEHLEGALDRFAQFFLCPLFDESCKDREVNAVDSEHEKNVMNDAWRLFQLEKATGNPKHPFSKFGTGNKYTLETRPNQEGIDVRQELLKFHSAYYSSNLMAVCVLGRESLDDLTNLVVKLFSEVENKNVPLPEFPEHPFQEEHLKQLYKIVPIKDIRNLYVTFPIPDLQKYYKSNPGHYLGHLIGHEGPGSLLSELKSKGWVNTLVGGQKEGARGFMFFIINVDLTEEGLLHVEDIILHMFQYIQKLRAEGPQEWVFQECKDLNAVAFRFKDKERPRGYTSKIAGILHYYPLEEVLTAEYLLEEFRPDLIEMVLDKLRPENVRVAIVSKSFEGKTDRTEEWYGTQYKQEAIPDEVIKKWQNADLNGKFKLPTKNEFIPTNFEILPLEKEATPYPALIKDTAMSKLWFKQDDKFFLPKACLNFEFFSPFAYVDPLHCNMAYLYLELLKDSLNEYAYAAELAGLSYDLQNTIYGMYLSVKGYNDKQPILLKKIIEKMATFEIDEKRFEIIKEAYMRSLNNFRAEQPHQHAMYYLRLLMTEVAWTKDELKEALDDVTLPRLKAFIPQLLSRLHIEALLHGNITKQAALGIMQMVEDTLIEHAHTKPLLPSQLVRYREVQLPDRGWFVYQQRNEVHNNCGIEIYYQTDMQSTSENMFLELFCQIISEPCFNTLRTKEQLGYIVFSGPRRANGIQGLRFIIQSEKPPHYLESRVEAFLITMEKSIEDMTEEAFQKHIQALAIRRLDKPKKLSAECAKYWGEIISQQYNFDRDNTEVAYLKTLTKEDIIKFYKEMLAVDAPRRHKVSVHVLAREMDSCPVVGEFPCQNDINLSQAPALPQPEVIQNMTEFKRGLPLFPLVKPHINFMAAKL

Melanocortin receptor 4 = Melanocortin receptor 4 (Homo sapiens, UniProt P32245); type: functional, cell-based;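 further: Cell-based assay with luminescence read-out, confirmatory dose-response testing for agonist activity of biased ligands at MC4R; human U2OS cells with tagged receptor and beta-arrestin; potency of agonists that increase receptor coupling to beta-arrestin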
[9] = viability of uninfected HEp-2 cells – cell-based, HTS, cytotoxicity control for RSV inhibitor project, dose response (AID 2410); type: functional; details: human respiratory syncytial virus
[10] = target: T2, DNA repair protein RAD52 homolog (Homo sapiens, UniProt P43351); type: functional, biochemical
T2 sequence (P43351 whole entry): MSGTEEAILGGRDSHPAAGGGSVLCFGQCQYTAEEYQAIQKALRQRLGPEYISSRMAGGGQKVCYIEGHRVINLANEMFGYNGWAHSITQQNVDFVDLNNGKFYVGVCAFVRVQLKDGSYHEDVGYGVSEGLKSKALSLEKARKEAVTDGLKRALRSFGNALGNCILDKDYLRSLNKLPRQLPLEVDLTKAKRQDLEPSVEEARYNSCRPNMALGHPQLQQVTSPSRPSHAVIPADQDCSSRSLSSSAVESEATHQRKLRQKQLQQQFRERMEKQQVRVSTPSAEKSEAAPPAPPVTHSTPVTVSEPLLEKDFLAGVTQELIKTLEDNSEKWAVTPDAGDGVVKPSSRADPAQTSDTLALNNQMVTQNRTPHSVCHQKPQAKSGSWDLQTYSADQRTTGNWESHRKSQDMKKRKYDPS

A-375 = assay: proliferation inhibition in MITF-low A375 cells – cell-based, cherry-pick samples, set 2, counter-screen for MITF modulator project, dose response (AID 540335); type: functional; details: Homo sapiens
[11] = general mammalian cell viability loss – inhibitor set, cherry-pick, set 2, cytotoxicity control for miR-122 modulator project, dose response (AID 720697); type: functional, cell-based
[12] = activation of miR-122 Renilla sensor silencing – cell-based, Huh7 psiCHECK-miR122, Renilla luciferase, cherry-picked, dose response (AID 651956); type: functional;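 further: huh7 hepatoma cells stably carrying a psiCHECK-2 miR-122 sensor plasmid; renilla luciferase signal reporting endogenous miR-122 activity after 48 h compound exposure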
Insulin-degrading enzyme [13] = target: T1, Insulin-degrading enzyme; assay: cellular IDE activation of Abeta substrate cleavage – fluorescence polarization, HEK cells, dose response (AID 588439); type: functional, cell-based
[14] = general mammalian cell viability loss – activator set, cherry-pick, cytotoxicity control for miR-122 modulator project, dose response (AID 720690); type: functional, cell-based;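 further: HEK293T human cells scored for general mammalian cytotoxicity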
[15] = target: T3, Microphthalmia-associated transcription factor (Homo sapiens, UniProt O75030); assay: reducers of TRPM1 reporter luminescence, concentration series – cell-based, SK-MEL-5, cherry-picked, set 3, MITF inhibitor project, dose response (AID 493073); type: functional;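 further: SK-MEL-5 melanoma cells with luciferase driven by the MITF target TRPM1 promoter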
T3 sequence (O75030 whole entry): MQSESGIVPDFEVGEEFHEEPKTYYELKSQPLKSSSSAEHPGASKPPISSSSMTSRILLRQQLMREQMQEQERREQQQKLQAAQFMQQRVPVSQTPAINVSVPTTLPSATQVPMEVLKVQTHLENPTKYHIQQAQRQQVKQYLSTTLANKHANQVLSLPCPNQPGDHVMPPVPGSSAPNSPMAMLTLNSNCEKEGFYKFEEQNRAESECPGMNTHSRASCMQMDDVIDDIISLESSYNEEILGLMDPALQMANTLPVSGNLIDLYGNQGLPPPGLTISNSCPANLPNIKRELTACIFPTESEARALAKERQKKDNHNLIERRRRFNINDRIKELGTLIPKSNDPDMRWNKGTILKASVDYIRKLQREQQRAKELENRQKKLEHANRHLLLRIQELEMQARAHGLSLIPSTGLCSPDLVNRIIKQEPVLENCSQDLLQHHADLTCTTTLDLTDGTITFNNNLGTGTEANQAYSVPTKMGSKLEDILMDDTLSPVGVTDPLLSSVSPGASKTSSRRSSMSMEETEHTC

HEK293 [16] = assay: optical interference in Abeta FP readout, dose response, artefact control for IDE activator project, biochemical, fluorescence polarization (AID 588442); type: functional, cell-based; details: Homo sapiens
cells [17] = details: HEK293
cells [18] = details: A549
[19] = viability loss in HepG2 liver cells – cell-based, ATP luminescence, cherry-pick, set 6, cytotoxicity control, dose response (AID 1053125); type: functional
[20] = target: Beta-2 adrenergic receptor (Homo sapiens, UniProt P07550); assay: ADRB2 activation measured by internalization – cell-based, FAP fluorogen, flow cytometry, cherry pick 1, dose response (AID 588763); type: functional
[21] = blockers of HIV-1 envelope-mediated cell-cell fusion – cherry-pick, dose response (AID 652057); type: functional, cell-based
[22] = HIV-1 AD8 envelope cell-cell fusion blockers – cherry-pick, dose response (AID 652062); type: functional, cell-based;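 further: luciferase signal from cell-cell fusion driven by HIV-1 clade B AD8 Env; potency is for inhibitors of fusion seen as a drop in luminescence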
[23] = off-target signal loss in HeLa-CEM21 co-culture – HeLa F-luc CTL cells, cherry-picked, counter-screen for HIV-1 Env fusion inhibitor project, dose response (AID 652040); type: functional, cell-based;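 further: potency for signal decrease marking cytotoxic or nonspecific inhibition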
[24] = viability loss in CEM21 cells – cell-based, plate reader, dry powder, cytotoxicity control, dose response (AID 687026); type: functional
[25] = blockers of HIV-1 ZM109 envelope-driven cell-cell fusion – HeLa effector, CEM target cells, luciferase, cherry-pick, dose response (AID 652058); type: functional, cell-based;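 further: luciferase signal from HIV-1 Env mediated cell-cell fusion of effector and target cells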
[26] = A Cell-Based Confirmatory Screen for Compounds that Inhibit VEEV TC-83 (4).; type: functional
[27] = A Cell-Based Confirmatory Screen for Compounds that Inhibit VEEV, TC-83 (5).; type: functional
[28] = A Cell-Based Confirmatory Screen for Compounds that Inhibit VEEV, TC-83 (8).; type: functional

Chain of Beta-2 adrenergic receptor (P07550 whole entry, the tested form may be a part): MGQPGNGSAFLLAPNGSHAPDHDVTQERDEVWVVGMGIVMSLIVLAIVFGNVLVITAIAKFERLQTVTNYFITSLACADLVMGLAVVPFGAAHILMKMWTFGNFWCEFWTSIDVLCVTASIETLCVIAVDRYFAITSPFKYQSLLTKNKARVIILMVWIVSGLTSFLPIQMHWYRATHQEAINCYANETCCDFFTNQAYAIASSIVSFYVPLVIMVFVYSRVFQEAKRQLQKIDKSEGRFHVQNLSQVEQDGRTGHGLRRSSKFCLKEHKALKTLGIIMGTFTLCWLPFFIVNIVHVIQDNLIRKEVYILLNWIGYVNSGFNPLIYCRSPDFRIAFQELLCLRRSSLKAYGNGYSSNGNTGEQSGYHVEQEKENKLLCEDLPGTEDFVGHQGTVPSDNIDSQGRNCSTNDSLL
Chain of Paired box protein Pax-8 (Q06710 whole entry): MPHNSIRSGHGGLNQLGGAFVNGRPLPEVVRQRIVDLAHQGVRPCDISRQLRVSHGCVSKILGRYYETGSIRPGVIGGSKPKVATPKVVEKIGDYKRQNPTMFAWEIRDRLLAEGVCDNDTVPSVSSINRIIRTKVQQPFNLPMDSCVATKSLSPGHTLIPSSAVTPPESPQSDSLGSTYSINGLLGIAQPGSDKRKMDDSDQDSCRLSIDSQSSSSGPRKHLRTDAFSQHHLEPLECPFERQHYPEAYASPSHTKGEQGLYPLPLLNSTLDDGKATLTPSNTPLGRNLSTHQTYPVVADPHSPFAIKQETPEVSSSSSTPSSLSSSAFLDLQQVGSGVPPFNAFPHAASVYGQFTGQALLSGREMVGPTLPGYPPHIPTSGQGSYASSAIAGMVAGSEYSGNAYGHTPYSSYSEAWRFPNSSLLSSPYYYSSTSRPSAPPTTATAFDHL
Chain of Melanocortin receptor 4 (P32245 whole entry): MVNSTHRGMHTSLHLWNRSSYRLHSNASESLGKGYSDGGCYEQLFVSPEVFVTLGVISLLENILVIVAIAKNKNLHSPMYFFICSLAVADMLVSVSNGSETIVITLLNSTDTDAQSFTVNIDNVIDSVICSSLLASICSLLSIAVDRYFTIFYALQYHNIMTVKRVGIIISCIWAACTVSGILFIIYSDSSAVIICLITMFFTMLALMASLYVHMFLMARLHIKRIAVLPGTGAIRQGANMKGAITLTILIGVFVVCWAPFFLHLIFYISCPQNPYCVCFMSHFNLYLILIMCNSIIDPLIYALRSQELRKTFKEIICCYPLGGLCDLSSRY
Chain of Metabotropic glutamate receptor 3 (P31422 whole entry): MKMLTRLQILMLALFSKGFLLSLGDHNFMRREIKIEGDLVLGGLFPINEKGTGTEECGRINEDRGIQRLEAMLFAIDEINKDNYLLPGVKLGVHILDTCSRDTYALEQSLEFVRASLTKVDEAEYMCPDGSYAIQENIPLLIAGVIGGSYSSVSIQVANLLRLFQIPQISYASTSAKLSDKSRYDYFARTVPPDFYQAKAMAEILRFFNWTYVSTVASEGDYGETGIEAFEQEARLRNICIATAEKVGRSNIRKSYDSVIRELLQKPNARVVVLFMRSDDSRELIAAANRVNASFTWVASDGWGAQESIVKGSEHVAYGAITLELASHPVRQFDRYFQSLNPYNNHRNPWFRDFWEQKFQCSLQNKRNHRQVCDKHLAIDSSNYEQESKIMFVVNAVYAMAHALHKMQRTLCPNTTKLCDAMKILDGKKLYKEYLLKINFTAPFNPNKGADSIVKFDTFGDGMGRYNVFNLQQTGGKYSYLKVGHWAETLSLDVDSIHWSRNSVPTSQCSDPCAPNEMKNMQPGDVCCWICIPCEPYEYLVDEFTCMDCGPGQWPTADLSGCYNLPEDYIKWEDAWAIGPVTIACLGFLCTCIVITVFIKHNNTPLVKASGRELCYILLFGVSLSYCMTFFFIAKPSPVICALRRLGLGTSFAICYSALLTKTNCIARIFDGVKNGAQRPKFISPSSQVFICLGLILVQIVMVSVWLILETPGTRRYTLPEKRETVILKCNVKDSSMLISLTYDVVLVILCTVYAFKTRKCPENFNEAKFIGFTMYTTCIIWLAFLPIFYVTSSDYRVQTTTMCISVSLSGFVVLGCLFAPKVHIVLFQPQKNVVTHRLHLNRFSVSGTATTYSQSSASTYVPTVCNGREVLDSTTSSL

For COc1ccc(OC)c(-c2ccc3cc(C(=O)N4CCCC(CO)C4)ccc3c2)c1 (stereo unspecified), the IC50 [1] was 9.16 µM (active).

In the case of Cc1ccc(S(=O)(=O)N(C)C[C@@H]2Oc3ccc(NC(=O)Nc4ccc(C(F)(F)F)cc4)cc3CC(=O)N([C@H](C)CO)C[C@@H]2C)cc1, the AC50 (Paired box protein Pax-8) is reported as 3.06 µM (active), the AC50 [2] is reported as 3.11 µM (active) and the AC50 [3] is reported as 9.76 µM (active). For the same molecule, the AC50 [4] was 10.1 µM (active), the AC50 [5] was 14.3 µM (active) and the AC50 [6] was 20.7 µM (active).

In the case of COc1cccc2sc(N(CCCN(C)C)C(=O)C(c3ccccc3)c3ccccc3)nc12, the IC50 (HEK293 [7]) is reported as 10.2 µM (inactive), the EC50 (Insulin-degrading enzyme [8]) is reported as > 54.7 µM (inactive) and the EC50 (Melanocortin receptor 4) is reported as > 89.2 µM (inactive). The CC50 [9] was 13.6 µM (active), the AC50 [10] was 13.3 µM (active) and the AC50 (A-375) was 18.3 µM (active). The AC50 [11] was 1.77 µM (active), the AC50 [12] was 8.07 µM (active) and the EC50 (Insulin-degrading enzyme [13]) was 15.1 µM (inactive). For the same molecule, the AC50 [14] was 16.2 µM (active), the AC50 [15] was 15.1 µM (active) and the EC50 (HEK293 [16]) was > 54.7 µM (inactive).

With O=c1oc2cc(O)ccc2cc1-c1nc2ccccc2o1 the AC50 (cells [17]) was 26.6 µM (active), the AC50 (cells [18]) was > 52 µM (inactive) and the AC50 [19] was > 52 µM (inactive).

In the case of O=C(CCc1ccc(S(=O)(=O)N2CCOCC2)cc1)Nc1nc(COc2ccccc2)cs1, the EC50 [20] is reported as 1.4 µM (active), the AC50 [21] is reported as 1.65 µM (active) and the AC50 [22] is reported as 4.58 µM (active). For the same molecule, the AC50 [23] was > 70 µM (inactive), the AC50 [24] was > 70 µM (inactive) and 50.5 µM (active) and the AC50 [25] was 1.07 µM (active).

In the case of O=c1c2cc([N+](=O)[O-])ccc2nc(CN2CCNCC2)n1-c1ccccc1F, the IC50 [26] is reported as 0.073 µM (active), the IC50 [27] is reported as < 0.23 µM (active) and the IC50 [28] is reported as < 0.198 µM (active).
